The test system of series [1] is Caco-2 cells. Kind of series: MTT assay of Caco-2 cells (cytotoxicity). The series is classed as cell-based. The procedure: (§1) Caco-2 cells were purchased from American Type Culture Collection (ATCC, USA) and maintained in Dulbecco's Modified Eagles Medium (DMEM) supplemented with 15% filtered sterile foetal bovine serum. Cells were incubated at 37° C. and 5% CO2 and were routinely sub-cultured every 4 days when 90% confluent. Cell count and viability was determined using a Countess automated cell counter (Invitrogen).
(§2) Caco-2 cells were seeded at a density of 1.0×10^4 cells/100 μl in DMEM supplemented with 15% FBS into each well of a 96 well plate (Nunclon, Denmark) and incubated at 37° C. and 5% CO2. Cells from 4 separate flasks of biological replicates of each cell type were used (N1-4) to improve statistical power. Media was then aspirated from […] and replaced with media containing each polydendron or aqueous Nile Red solution at an equivalent 1 μM Nile Red concentration then diluted 1:1 in media across the plate up to column 11. Column 12 served as a negative control and consisted of media and untreated cells. Following polydendron addition, the plates were incubated for 24 hours or 120 hours at 37° C., 5% CO2 prior to assessment of cytotoxicity.
Following incubation of treated plates for 24 h or 120 h, 20 μl of 5 mg ml^−1 MTT reagent was added to each well and incubated for 2 hours. Subsequently, 100 μL MTT lysis buffer (50% N—N-Dimethylformamide in water containing 20% SDS, 2.5% glacial acetic acid and 2.5% hydrochloric acid, pH 4.7) was added to each well to lyse overnight at 37° C., 5% CO2. Following incubation the absorbance of each well was read using a Tecan Genosis plate reader at 560 nm (Tecan Magellan, Austria).

Series [2] relates to Caco-2 cells. Nature of the series: ATP assay (CellTiter-Glo) of Caco-2 cells (cytotoxicity). The series is classed as cell-based. The protocol: as §1, §2
Following incubation of treated plates for 24 h or 120 h, cells were equilibrated to room temperature for approximately 30 minutes. All but 20 μl of media was removed from each well and 20 μl CellTiter-Glo® (Promega, UK) reagent was added. All reagents were made fresh and in accordance with the manufacturer's instructions. Plates were put on an orbital shaker for 10 minutes to mix contents and allow for stabilisation of luminescence signal. Luminescence was then measured using a Tecan Genios plate reader (Tecan Magellan, Austria).

Another series relates to Caco-2 cell monolayers. Kind of series: Transcellular permeability of Nile Red across Caco-2 cell monolayers. The class given is in vitro ADME. The conditions noted are these: 1 hour incubation. The procedure:
(§3) Transwells were seeded with 3.5×10^4 cells per well and propagated to a monolayer over a 21 day period, during which media in the apical and basolateral wells was changed every other day. Trans-epithelial electrical resistance (TEER) values were monitored until they were >1300Ω. 1 μM of Nile Red polydendron or 1 μM aqueous Nile Red was added to the apical chamber of 4 wells and the basolateral chamber of 4 wells to quantify transport in both Apical to Basolateral (A>B) and Basolateral to Apical (B>A) direction and sampled on an hourly basis over a 4 h time period. Apparent permeability coefficient was then determined by the amount of compound transported over time using the equation: […]
(§4) where (dQ/dt) is the amount per time (nmol·sec^−1), A is the surface area of the filter and C0 is the starting concentration of the donor chamber (1 μM).
(§5) 100 μl of each collected sample was mixed with 900 μl acetone, vortexed, sonicated for 6 minutes and centrifuged at 13300 rpm for 3 minutes. The supernatant was completely dried in a vacuum centrifuge at 30° C. until the dry solid sample was left. This was reconstituted in 150 μl acetonitrile, transferred to a 96-well black walled, flat bottomed plate and measured for fluorescence intensity excitation wavelength 480 nm, emission wavelength 560 nm using a Tecan Genios plate reader (Tecan Magellan, Austria).

Test in series [3]: as above
The class given is in vitro ADME. The note with it: human, Caco-2, 1 hour incubation, 1 μM Nile Red, mean of biological triplicate. The procedure: as §3, §4, §5

Setting [4] is: 24 hour incubation, range of concentrations investigated.
Setting [5] is: 120 hour incubation, range of concentrations investigated.

Regarding `CCN(CC)c1ccc2nc3c4ccccc4c(=O)cc-3oc2c1` [aqueous Nile Red, Nile red], in the series on Caco-2 cells [1] (setting [4]), the “metabolic turnover of Caco-2 cells compared to untreated cells” value is “did not affect metabolic turnover”. Besides, the EC50 result was “No EC50” in the series on Caco-2 cells [1] (120 hour incubation, FIG. 7); 1160 nM in the series with Caco-2 cells [1] (Homo sapiens, Caco-2, 24 hour incubation, FIG. 6, read-out: EC50); “No EC50” in the series with Caco-2 cells [2] (120 hour incubation, FIG. 9); 1950 nM in the series on Caco-2 cells [2] (Homo sapiens, Caco-2, 24 hour incubation, FIG. 8, read-out: EC50). The “viability of Caco-2 cells” value in the series on Caco-2 cells [1] (setting [5]) was “did not affect the viability”. Further, in the series with Caco-2 cells [2] (setting [4]), the “ATP presence compared to untreated cells” value was “not affected”. For the same molecule, in the series with Caco-2 cells [2] (setting [5]), the “viability compared to untreated cells” value is “not affected”. In addition, in the series with Caco-2 cell monolayers, the “A > B/B > A ratio” value worked out at 3.7140. Moreover, the Papp A→B at 1 h, 1 μM in series [3] (read-out: Papp Apical > Basolateral) was 23.7 ×10⁻⁶ cm/s. The Papp B→A at 1 h, 1 μM in series [3] (read-out: Papp Basolateral > Apical) worked out at 6.38 ×10⁻⁶ cm/s.

The term EC50 denotes the concentration that produces a half-maximal response.
